According to ChEMBL document CHEMBL3091331, “Aminothiazole-featured pirinixic acid derivatives as dual 5-lipoxygenase and microsomal prostaglandin E2 synthase-1 inhibitors with improved potency and efficiency in vivo” (J Med Chem, 2013):
Calls of active or inactive are those of the source. The calls are words filed in the database; no cut-off is given here.

Assays:
[1] = target: T1, Polyunsaturated fatty acid 5-lipoxygenase (Homo sapiens, UniProt P09917); experiment: Inhibition of 5-lipoxygenase in A23187-stimulated human polymorphonuclear leukocytes using arachidonic acid as substrate incubated 15 mins prior to substrate addition measured after 10 mins by HPLC analysis
T1 sequence (P09917 whole entry): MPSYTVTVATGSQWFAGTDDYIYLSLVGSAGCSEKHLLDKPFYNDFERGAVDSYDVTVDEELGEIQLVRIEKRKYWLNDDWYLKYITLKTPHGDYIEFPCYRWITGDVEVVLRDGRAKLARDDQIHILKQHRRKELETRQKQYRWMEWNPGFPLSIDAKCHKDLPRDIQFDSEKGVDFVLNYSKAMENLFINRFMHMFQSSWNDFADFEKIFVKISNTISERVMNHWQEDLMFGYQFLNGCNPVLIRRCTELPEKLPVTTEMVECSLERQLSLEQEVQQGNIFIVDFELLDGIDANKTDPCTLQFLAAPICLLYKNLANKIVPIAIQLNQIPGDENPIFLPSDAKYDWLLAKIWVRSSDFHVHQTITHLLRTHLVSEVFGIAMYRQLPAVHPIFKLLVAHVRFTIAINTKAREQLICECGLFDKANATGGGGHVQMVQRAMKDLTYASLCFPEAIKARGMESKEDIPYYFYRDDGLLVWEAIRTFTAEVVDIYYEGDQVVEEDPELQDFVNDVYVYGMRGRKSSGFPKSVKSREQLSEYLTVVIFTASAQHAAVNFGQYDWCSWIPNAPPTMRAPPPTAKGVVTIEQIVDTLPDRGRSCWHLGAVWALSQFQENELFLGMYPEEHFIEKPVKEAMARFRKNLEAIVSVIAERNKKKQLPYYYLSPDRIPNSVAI

[2] = Cytotoxicity against human polymorphonuclear leukocytes at 10 uM after 1 hr by trypan blue staining
Mus musculus [3] = experiment: Antiinflammatory activity in CD-1 mouse peritonitis model assessed as reduction in neutrophil infiltration at 10 mg/kg, ip administered 30 mins prior to zymosan-challenge measured after 4 hrs by spectrophotometry relative to vehicle-treated control; format: functional; details: CD-1, ip, route intraperitoneal
[4] = target: Mitogen-activated protein kinase 1 (Homo sapiens) (UniProt P28482); experiment: Inhibition of fMLP-mediated ERK2 phosphorylation in human polymorphonuclear leukocytes incubated for 15 mins prior to fMLP-challenge measured after 1.5 mins by SDS-PAGE analysis; format: cell-based
Mus musculus [5] = experiment: Antiinflammatory activity in CD-1 mouse peritonitis model assessed as reduction in myeloperoxidase activity at 10 mg/kg, ip administered 30 mins prior to zymosan-challenge measured after 4 hrs by spectrophotometry relative to vehicle-treated control; format: functional; details: CD-1, ip, route intraperitoneal
Mus musculus [6] = experiment: Reduction of LTC4 formation in CD-1 mouse peritonitis model at 10 mg/kg, ip administered 30 mins prior to zymosan-challenge measured after 30 mins by EIA relative to vehicle-treated control; format: functional; details: CD-1, ip, route intraperitoneal
[7] = tested on: Radical scavenging activity; experiment: Antioxidant activity assessed as DPPH radical scavenging activity at 10 uM after 30 mins; format: functional
Homo sapiens [8] = species on record: Homo sapiens; experiment: Translocation of 5-lipoxygenase from cytosol into nuclear membrane in A23187-stimulated human polymorphonuclear leukocytes assessed as enzyme product formation at 10 uM incubated for 15 mins prior to A23187-challenge measured after 5 mins by Western blotting analysis; format: functional
Homo sapiens [9] = species on record: Homo sapiens; experiment: (§1) Inhibition of reactive oxygen species generation in fMLP-stimulated human polymorphonuclear leukocytes incubated for 15 mins prior to fMLP-challenge by fluorescence assay; format: functional
[10] = as §1; format: functional
[11] = target: MAP kinase p38 (Homo sapiens) (UniProt O15264+Q15759+Q16539+P53778); experiment: Inhibition of fMLP-mediated p38 MAPK phosphorylation in human polymorphonuclear leukocytes incubated for 15 mins prior to fMLP-challenge measured after 1.5 mins by SDS-PAGE analysis; format: cell-based
[12] = target: T2, Prostaglandin G/H synthase 1 (Ovis aries) (UniProt P05979); experiment: Inhibition of ovine COX1 using arachidonic acid as substrate at 10 uM incubated 5 mins prior to substrate addition measured after 5 mins by HPLC analysis
T2 sequence (whole entry): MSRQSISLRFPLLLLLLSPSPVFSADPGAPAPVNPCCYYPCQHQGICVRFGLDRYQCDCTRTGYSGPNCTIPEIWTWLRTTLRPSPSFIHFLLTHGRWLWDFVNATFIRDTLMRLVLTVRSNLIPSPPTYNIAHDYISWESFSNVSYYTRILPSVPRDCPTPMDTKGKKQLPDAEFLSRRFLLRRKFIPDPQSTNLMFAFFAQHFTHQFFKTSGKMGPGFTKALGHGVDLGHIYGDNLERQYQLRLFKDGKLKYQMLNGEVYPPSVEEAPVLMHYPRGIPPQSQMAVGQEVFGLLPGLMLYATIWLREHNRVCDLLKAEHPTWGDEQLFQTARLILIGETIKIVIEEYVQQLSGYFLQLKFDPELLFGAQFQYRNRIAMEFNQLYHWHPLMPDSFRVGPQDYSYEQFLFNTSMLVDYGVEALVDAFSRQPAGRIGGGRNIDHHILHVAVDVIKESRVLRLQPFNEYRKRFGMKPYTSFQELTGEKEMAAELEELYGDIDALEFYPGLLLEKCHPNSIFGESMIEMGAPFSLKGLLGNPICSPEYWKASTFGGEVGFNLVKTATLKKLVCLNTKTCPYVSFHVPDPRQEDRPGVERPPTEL

[13] = target: T3, Prostaglandin G/H synthase 2 (Homo sapiens) (UniProt P35354); details: at 10 µM
T3 sequence (whole entry): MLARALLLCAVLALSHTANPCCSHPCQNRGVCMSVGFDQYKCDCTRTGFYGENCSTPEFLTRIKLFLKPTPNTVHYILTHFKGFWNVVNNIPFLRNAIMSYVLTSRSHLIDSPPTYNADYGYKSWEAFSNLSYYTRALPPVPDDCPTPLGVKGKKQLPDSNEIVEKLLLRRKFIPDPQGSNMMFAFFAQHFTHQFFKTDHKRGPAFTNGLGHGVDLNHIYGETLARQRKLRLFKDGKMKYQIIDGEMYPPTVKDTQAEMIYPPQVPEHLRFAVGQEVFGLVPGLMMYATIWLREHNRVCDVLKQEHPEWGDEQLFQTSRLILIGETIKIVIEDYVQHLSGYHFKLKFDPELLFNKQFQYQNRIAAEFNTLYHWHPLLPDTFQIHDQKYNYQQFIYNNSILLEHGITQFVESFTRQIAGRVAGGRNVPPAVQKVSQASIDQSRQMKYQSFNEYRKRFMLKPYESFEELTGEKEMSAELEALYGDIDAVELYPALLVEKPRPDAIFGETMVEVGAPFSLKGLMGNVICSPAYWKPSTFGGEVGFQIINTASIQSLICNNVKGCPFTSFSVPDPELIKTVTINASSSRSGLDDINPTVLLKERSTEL
Description: Inhibition of human recombinant COX2 using arachidonic acid as substrate at 10 uM incubated 5 mins prior to substrate addition measured after 5 mins by HPLC analysis

Mus musculus [14] = experiment: Reduction of 6-keto […] formation in CD-1 mouse peritonitis model at 10 mg/kg, ip administered 30 mins prior to zymosan-challenge measured after 4 hrs by EIA (reference value: 3.89 +/- 0.58 ng/ml); format: functional, organism-based; design: dose 10 mg/kg

Mitogen-activated protein kinase 1 (Homo sapiens), sequence (P28482 whole entry): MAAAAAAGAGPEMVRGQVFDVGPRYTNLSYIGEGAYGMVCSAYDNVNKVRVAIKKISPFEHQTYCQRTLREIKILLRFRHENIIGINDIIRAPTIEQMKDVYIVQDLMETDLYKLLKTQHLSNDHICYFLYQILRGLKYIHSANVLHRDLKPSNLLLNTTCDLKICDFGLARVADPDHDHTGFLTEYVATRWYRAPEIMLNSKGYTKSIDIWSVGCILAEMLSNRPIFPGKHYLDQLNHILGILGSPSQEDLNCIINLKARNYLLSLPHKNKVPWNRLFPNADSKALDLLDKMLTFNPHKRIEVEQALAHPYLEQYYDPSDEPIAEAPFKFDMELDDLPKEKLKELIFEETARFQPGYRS

## CCCCCCC(Sc1nc(Cl)cc(Nc2nc(-c3ccc4ccccc4c3)cs2)n1)C(=O)O (racemic)
[1]
  IC50: 200 nM
[2]
  Activity: Non-toxic
Mus musculus [3]
  inhibition in vivo at 10 mg/kg: 45%
[4]
  inhibition: inactive
Mus musculus [5]
  inhibition in vivo at 10 mg/kg: 23%
Mus musculus [6]
  inhibition in vivo at 10 mg/kg: 84%
[7]
  Activity: inactive
Homo sapiens [8]
  Activity: inactive
Homo sapiens [9]
  inhibition: Dose-dependent effect
[10]
  IC50: 3000 nM
[11]
  inhibition: inactive
[12]
  inhibition: 39%
[13]
  inhibition: 18%
Mus musculus [14]
  inhibition: inactive
